Results from US20070207946A1, “Dipeptidyl peptidase IV inhibitors and their uses for lowering blood pressure levels” (priority 2001, published 2007).

Biological target: T1, recombinant human prolyl oligopeptidase (Homo sapiens, UniProt P48147)
T1 construct: made in house; host or cells: E. coli
T1 sequence (P48147 1-710): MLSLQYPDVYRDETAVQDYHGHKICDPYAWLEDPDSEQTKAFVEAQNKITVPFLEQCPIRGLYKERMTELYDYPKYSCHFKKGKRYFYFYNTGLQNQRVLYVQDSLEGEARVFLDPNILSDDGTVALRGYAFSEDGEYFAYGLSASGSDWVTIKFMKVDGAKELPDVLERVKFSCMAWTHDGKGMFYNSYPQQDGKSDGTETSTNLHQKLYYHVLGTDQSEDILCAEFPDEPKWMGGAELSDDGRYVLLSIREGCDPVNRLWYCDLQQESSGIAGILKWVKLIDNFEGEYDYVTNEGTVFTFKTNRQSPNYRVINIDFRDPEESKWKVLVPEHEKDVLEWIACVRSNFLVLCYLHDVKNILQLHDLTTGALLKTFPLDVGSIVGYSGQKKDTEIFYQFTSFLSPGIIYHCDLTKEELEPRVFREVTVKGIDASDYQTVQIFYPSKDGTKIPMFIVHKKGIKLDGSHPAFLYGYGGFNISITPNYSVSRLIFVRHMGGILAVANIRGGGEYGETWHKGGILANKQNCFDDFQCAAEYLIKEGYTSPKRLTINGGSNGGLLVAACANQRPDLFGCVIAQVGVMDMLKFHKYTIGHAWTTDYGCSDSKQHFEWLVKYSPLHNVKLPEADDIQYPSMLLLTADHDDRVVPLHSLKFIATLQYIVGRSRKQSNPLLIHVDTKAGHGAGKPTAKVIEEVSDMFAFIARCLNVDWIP
Assay: Cross reacting enzymes - prolyl oligopeptidase
Assay type: biochemical
Details: concentration range 1*10^−4M-5*10^−8 M; pH7.6
Description: Substrates are peptides with a molecular weight up to 3000 Da. The enzyme used was a recombinant human prolyl oligopeptidase. Recombinant expression was performed in E. coli under standard conditions as described elsewhere in the state of the art.
100 μl glutaminyl pyrrolidine or glutaminyl thiazolidine in an concentration range of 1*10^−4M-5*10^−8 M were admixed with 100 μl μl buffer solution (40 mM HEPES, pH7.6, 0.015% Brij, 1 mM DTT) and 20 μl POP solution. The assay mixture was pre-incubated at 30° C. for 15 min. After pre-incubation, 50 μl glycylprolylprolyl-4-nitroaniline solution (0.29 mM) was added and measurement of yellow color development due to 4-nitroaniline release was performed at 30° C. and λ=405 nm for 10 min using a plate reader (sunrise, Tecan, Crailsheim, Germany). The IC50-values were calculated using Graphit 4.0.15 (Erithacus Software, Ltd., UK).

inhibition of POP activity: No inhibition
Structure (SMILES): NC(=O)CCC(N)C(=O)N1CCCC1 (stereo not shown) [Gln-Pyrr, glutaminyl pyrrolidine]
